Results on four molecules are retold here after US11072619B2, “Pyrazole[1,5-a] pyrimidine derivatives as kinase JAK inhibitors” (CELON PHARMA S.A., priority 2017, dated 2021).

The target in one assay is Recombinant kinase JAK1 (Homo sapiens (Human), UniProt P23458). In words: In vitro JAK kinase inhibition assay (ADP-Glo), JAK1. Format: biochemical. To be noted: 30 μM ATP, peptide IRS-1, averaged. How it is done: In Vitro JAK Kinase Inhibition Assay
The effects of the compounds of the invention were analysed in vitro using kinase JAK inhibition assay described below.
Tested compounds were dissolved in 100% DMSO, and obtained stock solutions were serially diluted in the reaction buffer (50 mM Tris pH 7.5, 10 mM MgCl2, 0.25 mM EGTA, 0.1 mM Na3VO4, 0.01% Triton X-100, 2.5 mM DTT). Recombinant kinases JAK1 (ProQinase), JAK2, or JAK3 (Carna Biosciences) were diluted in the dilution buffer (50 mM Tris-HCl pH 7.5, 150 mM NaCl, 10% glycerol, 0.05% Triton X-100, 1 mM DTT) to the final concentration 3 ng/μL (JAK1), 0.1 ng/μL (JAK2), or 0.2 ng/μL (JAK3). 5 μL of obtained solution of the compounds and 5 μL of the solution of respective kinases were added to the well of a 96-well plate. To initiate interaction between tested compounds and an enzyme, the plate was incubated for 10 minutes at 25° C. in a Plate-Thermo-Shaker with orbital stirring at 400 rpm. Wells of a negative control contained all reagents as mentioned above with the exception of tested compounds and kinase, and wells of a positive controls contained all reagents as mentioned above with the exception of tested compounds. Enzymatic reaction was initiated by the addition of 15 μL of the following solution: 5× concentrated reaction buffer (50 mM Tris pH 7.5, 10 mM MgCl2, 0.25 mM EGTA, 0.1 mM Na3VO4, 0.01% Triton X-100, 2.5 mM DTT), water, 30 μM ATP and for particular kinases: JAK1—60 μM peptide IRS-1 (Enzo), JAK2 or JAK3—10 μM peptide IGF-1Rtide (Lipopharm). Then the plate was incubated for 1 hour at 25° C. in a Plate-Thermo-Shaker, with orbital stirring at 400 rpm. Detection of ADP formed in the enzymatic reaction was then performed using ADP-Glo Kinase Assay kit (Promega). For this purpose, to the well of the 96-well plate 25 μL of ADP-Glo Reagent were added, and the plate was incubated for 40 minutes at 25° C. in a Plate-Thermo-Shaker with orbital stirring at 400 rpm. Then to the well of the 96-well plate 50 μL of Kinase Detection Reagent were added and the plate was incubated for 30 minutes at 25° C. in a Plate-Thermo-Shaker with orbital stirring at 400 rpm. After incubation, luminescence intensity was measured using Victor×Light luminometer (Perkin Elmer, Inc.).
On the basis of luminescence measurement in wells containing tested compounds at various concentrations and in control wells, IC50 values were determined. These values were determined with Graph Pad software v. 5.03, by fitting points of the curve using non-linear regression method. Each compound was tested in at least 6 repetitions (6 wells) on two 96-well plates, using at least 3 wells of each control.
Averaged results of kinases JAK inhibition activity for selected compounds of the present invention are presented below in Table 1.

Assay [1] has as its system STAT6 protein phosphorylation in TF-1 cells. The assay is described as follows: STAT6 phosphorylation inhibition in vitro in TF-1 cells with IL-4. Type of assay: cell-based. The settings on record: Homo sapiens, IL-4 20 ng/mL, 1 hour, Western blot densitometry. The procedure: Assay of STAT6 Phosphorylation Inhibition In Vitro
The activity of the compounds of the invention was tested using in vitro assay described below.
Tested compounds were dissolved in 100% DMSO, and obtained stock solutions were serially in OptiMEM medium (Reduced Serum Medium-Thermo Fisher Scientific). TF-1 cells (DSMZ no.: ACC 334) in culture medium (80% RPMI 1640+20% FBS) in the presence of IL-4 at 20 ng/mL were sieved on 12-well plates at 900 μl/well, 700 thousands of cells/well. To a well of the 12-well plate 100 μL of obtained 10× solution of the compounds were added. Cells on 12-well plates were incubated with tested compounds for 1 hour at 37° C., 5% CO2. Subsequently the cells were washed with PBS, lysed in RIPA buffer added with EDTA, proteases and phosphatases inhibitors, and incubated for 5 min on ice. Protein concentration was determined using Pierce BCA Protein Assay Kit (Thermo Fisher Scientific). Protein lysates were separated by electrophoresis (SDS-PAGE) on 8% polyacrylamide gels, then wet-transferred on nitrocellulose membrane and tested proteins were detected in accordance with the instructions of antibody manufacturer.
On the basis of the measurement of chemoluminescence intensity densitometric analysis was performed, results obtained for the cells treated with tested compounds at various concentrations were compared with those obtained for control cells, and IC50 values were determined.
These values were determined with Graph Pad software v. 5.03, by fitting points of the curve using non-linear regression method. Each compound was tested in at least 3 repetitions.

A further assay has as its system TF-1 cells. The assay is described as follows: TF-1 cells viability in vitro in the presence of IL-3 (JAK2 activation). Format: cell-based. To be noted: Homo sapiens, 5 ng/mL IL-3, 72 hours, ATPlite, read-out: JAK2 IL3 (EC50, inhibition of viability of TF-1 cells). The procedure:
Assay for TF-1 Cells Viability In Vitro
The effects of the activity of the compounds of the invention were tested in vitro using cells viability assay described below.
Tested compounds were dissolved in 100% DMSO, and obtained stock solutions were serially diluted in OptiMEM medium (Reduced Serum Medium-Thermo Fisher Scientific). […] To a well of the 96-well plate 10 μL of the prepared 10× stock solutions of the compounds. Cells on 96-well plates were incubated with the compounds for 72 hours at 37° C., 5% CO2. Subsequently, viability of the cells was measured using ATPlite kit (Perkin Elmer). For this purpose, 50 μL of lysis buffer (mammalian cell lysis solution) were added to a well of the 96-well plate and the plate was incubated for 10 minutes at 25° C. in a plate thermo-shaker with orbital stirring at 600 rpm. Then to a well of the 96-well plate 50 μL of substrate (substrate solution) were added and incubated for 15 minutes at in dark, in a plate thermo-shaker with orbital stirring at 600 rpm. After incubation time, luminescence intensity in a well was measured using Victor×Light luminometer (Perkin Elmer, Inc.).
On the basis of luminescence intensity measurements in well containing tested compounds at various concentrations and in control wells EC50 values were determined. These values were determined with Graph Pad software v. […] Each compound was tested in at least 6 repetitions (6 wells) on two 96-well plates, using at least 3 wells of each control.

Chain of Recombinant kinase JAK1 (P23458 whole entry): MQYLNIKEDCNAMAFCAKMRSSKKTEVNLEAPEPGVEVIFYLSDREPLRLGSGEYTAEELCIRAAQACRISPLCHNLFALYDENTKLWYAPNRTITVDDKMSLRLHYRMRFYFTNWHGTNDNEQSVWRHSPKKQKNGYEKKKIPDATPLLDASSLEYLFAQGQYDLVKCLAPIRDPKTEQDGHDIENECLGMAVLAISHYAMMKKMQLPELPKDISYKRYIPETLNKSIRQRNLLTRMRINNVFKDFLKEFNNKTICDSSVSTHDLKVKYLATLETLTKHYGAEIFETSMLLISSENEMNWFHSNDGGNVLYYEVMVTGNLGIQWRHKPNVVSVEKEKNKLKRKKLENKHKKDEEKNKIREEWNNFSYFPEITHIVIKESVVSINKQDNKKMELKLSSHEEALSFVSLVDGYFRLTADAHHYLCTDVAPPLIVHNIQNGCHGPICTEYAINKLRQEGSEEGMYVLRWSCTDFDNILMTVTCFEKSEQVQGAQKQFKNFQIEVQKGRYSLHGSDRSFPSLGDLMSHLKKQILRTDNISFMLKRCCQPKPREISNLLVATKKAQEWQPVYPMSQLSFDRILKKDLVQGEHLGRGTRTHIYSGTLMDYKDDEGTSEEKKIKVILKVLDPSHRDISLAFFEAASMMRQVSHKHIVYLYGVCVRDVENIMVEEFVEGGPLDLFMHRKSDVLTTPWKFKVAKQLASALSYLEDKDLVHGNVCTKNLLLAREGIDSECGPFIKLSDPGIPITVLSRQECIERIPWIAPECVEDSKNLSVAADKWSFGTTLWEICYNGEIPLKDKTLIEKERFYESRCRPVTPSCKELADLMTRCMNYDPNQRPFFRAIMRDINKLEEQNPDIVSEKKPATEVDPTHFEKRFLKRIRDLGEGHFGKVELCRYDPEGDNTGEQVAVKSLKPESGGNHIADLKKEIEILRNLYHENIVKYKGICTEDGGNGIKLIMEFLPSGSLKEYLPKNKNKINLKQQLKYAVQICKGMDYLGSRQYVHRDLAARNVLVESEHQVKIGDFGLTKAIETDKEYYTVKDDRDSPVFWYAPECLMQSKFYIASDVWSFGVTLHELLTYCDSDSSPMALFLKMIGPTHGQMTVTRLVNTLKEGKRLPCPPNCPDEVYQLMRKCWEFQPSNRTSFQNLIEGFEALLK

For `COc1cccc(-c2cc3ncc(C(N)=O)c(N[C@@H]4CCN(c5ccc(C#N)nn5)CC4(C)C)n3n2)n1` [Example 11, (R)-7-((1-(6-Cyanopyridazin-3-yl)-3,3-dimethylpiperidin-4-yl)amino)-2-(6-methoxy-pyridin-2-yl)pyrazolo[1,5-a]pyrimidine-6-carboxamide], the IC50 on Recombinant kinase JAK1 was 0.05 nM; in assay [1], 114 nM; in the assay on TF-1 cells, 451 nM.
In the case of `CC1(C)CN(c2ccc(C#N)nn2)CC[C@H]1Nc1c(C(N)=O)cnc2cc(-c3ccc(N4CCOCC4)nc3)nn12` [Example 7, (R)-7-((1-(6-Cyanopyridazin-3-yl)-3,3-dimethylpiperidin-4-yl)amino)-2-(6-morpholinopyridin-3-yl)pyrazolo[1,5-a]pyrimidine-6-carboxamide], the IC50 at Recombinant kinase JAK1 worked out at 0.75 nM; in assay [1] it was 116 nM; in the assay on TF-1 cells, 283 nM.
As to `COc1ccc(-c2cc3ncc(C(N)=O)c(N[C@@H]4CCN(c5ccc(C#N)nn5)CC4(C)C)n3n2)cn1` [Example 4, (R)-7-((1-(6-Cyanopyridazin-3-yl)-3,3-dimethylpiperidin-4-yl)amino)-2-(6-methoxy-pyridin-3-yl)pyrazolo[1,5-a]pyrimidine-6-carboxamide], the results for the IC50 (on Recombinant kinase JAK1; in assay [1]; with TF-1 cells) were 2.67 nM, 442 nM and 707 nM, respectively.
For the molecule `Cc1cc(-c2cc3ncc(C(N)=O)c(N[C@@H]4CCN(c5ccc(C#N)nn5)CC4(C)C)n3n2)ccn1` [Example 12, (R)-7-((1-(6-Cyanopyridazin-3-yl)-3,3-dimethylpiperidin-4-yl)amino)-2-(2-methyl-pyridin-4-yl)pyrazolo[1,5-a]pyrimidine-6-carboxamide], the IC50 on Recombinant kinase JAK1 was found to be 0.51 nM; in assay [1] it was 150 nM; in the assay on TF-1 cells, 361 nM.
